According to PubChem BioAssay (NCI):
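Briefly, cells in 96-well plates were exposed to five compound concentrations for 48 h, and endpoints were estimated by linear interpolation. The concentration for full growth arrest is given as TGI.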

How the values were obtained:
Assay in all cases: NCI-60 cell line screen, 48 h
DU-145 prostate = test system: DU-145 prostate
SNB-75 CNS = test system: SNB-75 CNS
SN12C renal = test system: SN12C renal
SF-268 CNS = test system: SF-268 CNS
SF-539 CNS = test system: SF-539 CNS
HCT-15 colon = test system: HCT-15 colon
786-0 renal = test system: 786-0 renal
UACC-62 melanoma = test system: UACC-62 melanoma
OVCAR-5 ovarian = test system: OVCAR-5 ovarian
CAKI-1 renal = test system: CAKI-1 renal
SW-620 colon = test system: SW-620 colon
NCI-H23 lung = test system: NCI-H23 lung
MCF7 breast = test system: MCF7 breast
RPMI-8226 leukemia = test system: RPMI-8226 leukemia
OVCAR-4 ovarian = test system: OVCAR-4 ovarian
MOLT-4 leukemia = test system: MOLT-4 leukemia
MDA-N = test system: MDA-N
NCI-H522 lung = test system: NCI-H522 lung
NCI-H226 lung = test system: NCI-H226 lung
UO-31 renal = test system: UO-31 renal
SK-OV-3 ovarian = test system: SK-OV-3 ovarian
NCI-H460 lung = test system: NCI-H460 lung
LOX IMVI melanoma = test system: LOX IMVI melanoma
SK-MEL-2 melanoma = test system: SK-MEL-2 melanoma
RXF 393 renal = test system: RXF 393 renal
A498 renal = test system: A498 renal
KM12 colon = test system: KM12 colon
COLO 205 colon = test system: COLO 205 colon
SNB-19 CNS = test system: SNB-19 CNS
M14 melanoma = test system: M14 melanoma
K-562 leukemia = test system: K-562 leukemia
HS 578T breast = test system: HS 578T breast
PC-3 prostate = test system: PC-3 prostate
SK-MEL-28 melanoma = test system: SK-MEL-28 melanoma
MDA-MB-231 breast = test system: MDA-MB-231 breast
TK-10 renal = test system: TK-10 renal
CCRF-CEM leukemia = test system: CCRF-CEM leukemia
A549 NSCLC = test system: A549 NSCLC
HOP-92 NSCLC = test system: HOP-92 NSCLC
MALME-3M melanoma = test system: MALME-3M melanoma
ACHN renal = test system: ACHN renal
SR leukemia = test system: SR leukemia
HOP-62 NSCLC = test system: HOP-62 NSCLC
HCC-2998 colon = test system: HCC-2998 colon
SF-295 CNS = test system: SF-295 CNS
UACC-257 melanoma = test system: UACC-257 melanoma
MDA-MB-435 = test system: MDA-MB-435
HCT-116 colon = test system: HCT-116 colon
T-47D breast = test system: T-47D breast
HT29 colon = test system: HT29 colon
OVCAR-8 ovarian = test system: OVCAR-8 ovarian
NCI/ADR-RES ovarian = test system: NCI/ADR-RES ovarian
U251 CNS = test system: U251 CNS
HL-60(TB) leukemia = test system: HL-60(TB) leukemia
IGROV1 ovarian = test system: IGROV1 ovarian

Work on `CCN(CCCl)c1cc(CN(C)C)cc(NC(=O)c2ccc(C(=O)Nc3cccc(CN(C)C)c3)cc2)c1` yielded a TGI (DU-145 prostate) of 42.6 µM, a TGI (SNB-75 CNS) of 3.18 µM and a TGI (SN12C renal) of 10.6 µM. The TGI (SF-268 CNS) was 63.1 µM, the TGI (SF-539 CNS) was 2.99 µM and the TGI (HCT-15 colon) was > 100 µM. The TGI (786-0 renal) was 2.35 µM, the TGI (UACC-62 melanoma) was 4.07 µM and the TGI (OVCAR-5 ovarian) was 93.2 µM. For the same compound, the TGI (CAKI-1 renal) was > 100 µM, the TGI (SW-620 colon) was 0.75 µM and the TGI (NCI-H23 lung) was 11.2 µM. For the same compound, the TGI (MCF7 breast) was 1 µM, the TGI (RPMI-8226 leukemia) was 8.73 µM and the TGI (OVCAR-4 ovarian) was 6.08 µM. For the same compound, the TGI (MOLT-4 leukemia) was 0.904 µM, the TGI (MDA-N) was 0.685 µM and the TGI (NCI-H522 lung) was 0.042 µM. The TGI (NCI-H226 lung) was 17.2 µM, the TGI (UO-31 renal) was 76.3 µM and the TGI (SK-OV-3 ovarian) was > 100 µM. For the same compound, the TGI (NCI-H460 lung) was 10.6 µM, the TGI (LOX IMVI melanoma) was 0.569 µM and the TGI (SK-MEL-2 melanoma) was 1.61 µM. For the same compound, the TGI (RXF 393 renal) was 0.82 µM, the TGI (A498 renal) was 7.33 µM and the TGI (KM12 colon) was 3.69 µM. It also gave a TGI (COLO 205 colon) of 2.41 µM, a TGI (SNB-19 CNS) of 1.34 µM and a TGI (M14 melanoma) of 17.7 µM. The TGI (K-562 leukemia) was 1.42 µM, the TGI (HS 578T breast) was 0.671 µM and the TGI (PC-3 prostate) was 0.733 µM. For the same compound, the TGI (SK-MEL-28 melanoma) was 5.2 µM, the TGI (MDA-MB-231 breast) was > 100 µM and the TGI (TK-10 renal) was 9.94 µM. For the same compound, the TGI (CCRF-CEM leukemia) was 0.669 µM, the TGI (A549 NSCLC) was 14.5 µM and the TGI (HOP-92 NSCLC) was 3.66 µM. The TGI (MALME-3M melanoma) was 2.81 µM, the TGI (ACHN renal) was 10.7 µM and the TGI (SR leukemia) was 1.56 µM. For the same compound, the TGI (HOP-62 NSCLC) was 10.8 µM, the TGI (HCC-2998 colon) was 3.05 µM and the TGI (SF-295 CNS) was 13.2 µM. It also gave a TGI (UACC-257 melanoma) of 3.67 µM, a TGI (MDA-MB-435) of 0.665 µM and a TGI (HCT-116 colon) of 14.4 µM. It also gave a TGI (T-47D breast) of 10.1 µM, a TGI (HT29 colon) of 6.87 µM and a TGI (OVCAR-8 ovarian) of 12.8 µM. The TGI (NCI/ADR-RES ovarian) was > 100 µM, the TGI (U251 CNS) was 0.667 µM and the TGI (HL-60(TB) leukemia) was 0.444 µM. The TGI (IGROV1 ovarian) was 10 µM.
